{"source": "patent US7655392B2", "about": "“Quenching methods for red blood cell inactivation process” (priority 2004, dated 2010)", "key": {"[1]": {"tested_on": "red blood cells", "format": "cell-based", "experimental": "In another assay, the rabbit polyclonal sera may be reacted with treated red blood cells. After washing off unbound antibody, a FITC labeled goat anti-rabbit Fab′2 fragment (anti H+L chains, Caltag) is added. The binding of FITC label to the red blood cells correlates with the amount of acridine bound to the red blood cell surface, and is assessed by FACScan™ analysis (Becton, Dickinson and Co., NJ). The relative modification of the red blood cells is determined from the FACScan™ mean fluorescence value.\nA 20 mL sample of leukoreduced whole blood (Blood Source, Sacramento, Calif.) was centrifuged at 4,100×g for 5 minutes at room temperature in each of four 50 mL centrifuge tubes. The supernatant was removed from each tube to provide red cell concentrate (RCC). […] For each washed RCC, cells were resuspended in 5 mL of the solution used for washing. This is now referred to as the RBC test sample. […] These samples were incubated for 20 hours at room temperature. After incubation, the RBC were washed in BBS (Blood Bank Saline, 0.9% saline, unbuffered, Fisher Scientific) and were diluted to a final hematocrit of 4%. A 25 μL aliquot of each was mixed with 15 μL of rabbit polyclonal anti-acridine sera diluted 1:100 in BBS and the mixture was incubated at 37° C. for 30 minutes. The cells were subsequently washed with 1.5 mL BBS. After washing was complete, the cells were mixed with 50 μL of FITC labeled goat anti-rabbit Fab′2 fragment (1:64 dilution in BBS) and incubated at 37° C. for 30 minutes. […] Note that the quenching improves as glutathione is neutralized with increasing amounts of sodium hydroxide.\nThe FACScan analysis of the binding of rabbit anti-acridine sera to treated red cells was used to assess a variety of quenching conditions. […] The tables represent data from two different experiments, each with samples treated under standard conditions or with 20 mM neutralized glutathione. […] The data within an experiment provides the relative efficacy of the various treatments. Because the assay may depend on the lot of red blood cells used, the absolute values of mean fluorescence may vary from one study to the next, such that relative values should only be compared within a given experiment. […] Neutralized glutathione at 20 mM results in close to background levels.\nAn untreated control sample as well as a standard sample (co-addition of 2 mM acidic glutathione with 0.2 mM PIC-1) were also assessed.\nFull units of red cell concentrates (Interstate Blood Bank, Inc., Memphis, Tenn.) were leukoreduced. A volume of 200 mL of this RCC (80% hematocrit) was mixed with 94 mL of Erythrosol or 100 mL of Adsol (Baxter Healthcare Corp., Deerfield, Ill.) as control (unit 1). A volume of 20 mL 8% dextrose was used to dissolve PIC-1 (mg) and acid glutathione (mg) and added to one unit to provide 0.2 mM PIC-1 and 2 mM glutathione (unit 2). […] For the glutathione, 1.2 mL of 10 N NaOH was added (2 equivalents). The PIC-1 was mixed with the unit, followed 1 minute later (unit 3) or 5 minutes later (unit 4) by glutathione. For unit 5, neutralized glutathione was mixed first, followed 10 minutes later by the PIC-1. […] All units were mixed by grasping the ends of the blood bag and mixing in a FIG. 8 motion 30 times. These were then incubated at room temperature for 20 hours total. A compound adsorption device (CAD), comprising a polymeric resin contained within a mesh pouch, was used for all but the control sample. This device is intended to remove residual PIC-1, PIC-1 breakdown products, and glutathione from the samples. Samples were incubated for 8 hours, then transferred to a second blood bag containing the CAD and incubated for an additional 12 hours. Following the room temperature incubation, samples were transferred to a refrigerator (4° C.) and stored up to 43 days."}, "[2]": {"tested_on": "Yersinia enterocolitica", "assay": "Inactivation of Yersinia enterocolitica in RBC (colony count)", "format": "cell-based"}, "[3]": {"assay": "Co-formulation of PIC-1 with neutralized glutathione in one solution (observation)", "format": "physicochemical", "conditions": "PIC-1 and 20 mM glutathione neutralized with NaOH in one solution (Table 2A samples 4-6)", "description": "The methods of the invention result in adequate inactivation of possible pathogen contaminants in red blood cell compositions with improved quenching as compared to known methods. […] In some embodiments, the quencher is acidic and is neutralized with 1 to 2 equivalents of a suitable base, such as sodium hydroxide. In a preferred embodiment, the quencher is glutathione neutralized with 2 equivalents of base. In a preferred embodiment, the pathogen inactivating compound comprises an acridine group linked to a mustard group via an ester bond. […] The quencher may be added to the red blood cell composition before, after, or simultaneously with the pathogen inactivating compound. In some embodiments, the quencher is added in the time range of about 30 minutes prior to pathogen inactivating compound up to about 10 minutes following pathogen inactivating compound. In some embodiments, the quencher and pathogen inactivating compound may be added essentially simultaneously but separately. […] Because of the high concentration of glutathione required for adequate quenching, the pathogen inactivating compound precipitates when these are in the same solution in high concentrations. Once added to the red blood cell composition, they are sufficiently diluted and buffered as to both be completely soluble."}, "[4]": {"conditions": "0.2 mM PIC-1, 2 mM acidic glutathione (0 eq base), no delay"}, "[5]": {"conditions": "20 mM cysteine+1 eq base, then 0.2 mM PIC-1 after 10 min"}, "[6]": {"conditions": "20 mM cysteine+2 eq base, then 0.2 mM PIC-1 after 10 min"}, "[7]": {"conditions": "20 mM glutathione+2 eq base, then 0.2 mM PIC-1 after 10 min"}}, "note": "“And” between values parts separate entries of the source, which are not always exact repeats. Equal entries are not always repeated. Where two headings read alike, the source gives them in different places.", "data": [{"compound": "O=C(CCNc1c2ccccc2nc2ccccc12)OCCN(CCCl)CCCl", "note": "[PIC-1]", "values": [{"measurement": "Mean fluorescence intensity", "setting": "[1]; RBC in Erythrosol pH 7.3 no wash, 0.2 mM PIC-1, 20 mM GSH+2 eq NaOH", "result": 6.0}, {"measurement": "mean fluorescence", "setting": "[1]; Table 9A: 0.2 mM PIC-1+2 mM GSH, 0 eq NaOH, no delay (standard)", "result": 114}, {"measurement": "mean fluorescence", "setting": "[1]; Table 9A: 5 mM Cys+2 eq NaOH, then 0.2 mM PIC-1 after 5 min", "result": 8}, {"measurement": "mean fluorescence", "setting": "[1]; Table 9A: 5 mM Cys+2 eq NaOH, then 0.2 mM PIC-1 after 10 min", "result": 10.8}, {"measurement": "mean fluorescence", "setting": "[1]; Table 9A: 5 mM Cys+2 eq NaOH, then 0.2 mM PIC-1 after 20 min", "result": 8}, {"measurement": "mean fluorescence", "setting": "[1]; Table 9A: 10 mM Cys+2 eq NaOH, then 0.2 mM PIC-1 after 10 min", "result": 2.9}, {"measurement": "mean fluorescence", "setting": "[1]; Table 9A: 15 mM Cys+2 eq NaOH, then 0.2 mM PIC-1 after 10 min", "result": 1.9}, {"measurement": "mean fluorescence", "setting": "[1]; Table 9A: 20 mM Cys+2 eq NaOH, then 0.2 mM PIC-1 after 5 min", "result": 1.9}, {"measurement": "mean fluorescence", "setting": "[1]; Table 9A: 20 mM Cys+2 eq NaOH, then 0.2 mM PIC-1 after 10 min", "result": 1.9}, {"measurement": "mean fluorescence", "setting": "[1]; Table 9A: 20 mM Cys+2 eq NaOH, then 0.2 mM PIC-1 after 20 min", "result": 2}, {"measurement": "mean fluorescence", "setting": "[1]; Table 9A: 20 mM GSH+2 eq NaOH, then 0.2 mM PIC-1 after 10 min", "result": 2.6}, {"measurement": "mean fluorescence", "setting": "[1]; Table 9A: […] Cys+2 eq NaOH, then 0.2 mM PIC-1 after 10 min", "result": 37}, {"measurement": "mean fluorescence", "setting": "[1]; Table 9B: 0.2 mM PIC-1+2 mM GSH, 0 eq NaOH, no delay (standard)", "result": "160 and 151 and 182"}, {"measurement": "mean fluorescence", "setting": "[1]; Table 9B: 5 mM Cys+1 eq NaOH, then 0.2 mM PIC-1 after 10 min", "result": 19.28}, {"measurement": "mean fluorescence", "setting": "[1]; Table 9B: 5 mM Cys+2 eq NaOH, then 0.2 mM PIC-1 after 10 min", "result": 14.1}, {"measurement": "mean fluorescence", "setting": "[1]; Table 9B: 5 mM Cys, 0 eq NaOH, then 0.2 mM PIC-1 after 10 min", "result": 49}, {"measurement": "mean fluorescence", "setting": "[1]; Table 9B: 10 mM Cys+1 eq NaOH, then 0.2 mM PIC-1 after 10 min", "result": 5.1}, {"measurement": "mean fluorescence", "setting": "[1]; Table 9B: 10 mM Cys+2 eq NaOH, then 0.2 mM PIC-1 after 10 min", "result": 3.6}, {"measurement": "mean fluorescence", "setting": "[1]; Table 9B: 10 mM Cys, 0 eq NaOH, then 0.2 mM PIC-1 after 10 min", "result": 11.6}, {"measurement": "mean fluorescence", "setting": "[1]; Table 9B: 20 mM Cys+1 eq NaOH, then 0.2 mM PIC-1 after 10 min", "result": 2.5}, {"measurement": "mean fluorescence", "setting": "[1]; Table 9B: 20 mM Cys, 0 eq NaOH, then 0.2 mM PIC-1 after 10 min", "result": 4.3}, {"measurement": "mean fluorescence", "setting": "[1]; Table 9B: 20 mM GSH+2 eq NaOH, then 0.2 mM PIC-1 after 10 min", "result": "6.06 and 5.62 and 5.6"}, {"measurement": "mean fluorescence", "setting": "[1]; Table 9B: […] Cys+1 eq NaOH, then 0.2 mM PIC-1 after 10 min", "result": 49.5}, {"measurement": "mean fluorescence", "setting": "[1]; Table 9B: […] Cys+2 eq NaOH, then 0.2 mM PIC-1 after 10 min", "result": 49}, {"measurement": "mean fluorescence", "setting": "[1]; Table 9B: […] Cys, 0 eq NaOH, then 0.2 mM PIC-1 after 10 min", "result": 44}, {"measurement": "mean fluorescence", "setting": "[1]; Table 11C: 2 mM GSH, 1 eq. base, then 0.2 mM PIC-1", "result": 208.05}, {"measurement": "mean fluorescence", "setting": "[1]; Table 11C: 2 mM GSH, 2 eq. base, then 0.2 mM PIC-1", "result": 160.37}, {"measurement": "mean fluorescence", "setting": "[1]; Table 11C: 2 mM GSH, no added base, then 0.2 mM PIC-1", "result": 179.17}, {"measurement": "mean fluorescence", "setting": "[1]; Table 11C: 5 mM GSH, 1 eq. base, then 0.2 mM PIC-1", "result": 87.6}, {"measurement": "mean fluorescence", "setting": "[1]; Table 11C: 5 mM GSH, 2 eq. base, then 0.2 mM PIC-1", "result": 67.56}, {"measurement": "mean fluorescence", "setting": "[1]; Table 11C: 5 mM GSH, no added base, then 0.2 mM PIC-1", "result": 95.57}, {"measurement": "mean fluorescence", "setting": "[1]; Table 11C: 10 mM GSH, 1 eq. base, then 0.2 mM PIC-1", "result": 47.18}, {"measurement": "mean fluorescence", "setting": "[1]; Table 11C: 10 mM GSH, 2 eq. base, then 0.2 mM PIC-1", "result": 27.45}, {"measurement": "mean fluorescence", "setting": "[1]; Table 11C: 10 mM GSH, no added base, then 0.2 mM PIC-1", "result": 88.21}, {"measurement": "mean fluorescence", "setting": "[1]; Table 11C: 20 mM GSH, 1 eq. base, then 0.2 mM PIC-1", "result": 29.97}, {"measurement": "mean fluorescence", "setting": "[1]; Table 11C: 20 mM GSH, 2 eq. base, then 0.2 mM PIC-1", "result": 13.37}, {"measurement": "mean fluorescence", "setting": "[1]; Table 11C: 20 mM GSH, no added base, then 0.2 mM PIC-1", "result": 187.74}, {"measurement": "mean fluorescence", "setting": "[1]; Table 11C: co-addition std., 2 mM acidic glutathione with 0.2 mM PIC-1", "result": 144.33}, {"measurement": "Log Y. enterocolitica reduction", "setting": "[2]; [4]", "result": 8.49, "unit": "Log"}, {"measurement": "Log Y. enterocolitica titer", "setting": "[2]; [4]", "result": 0.00, "unit": "Log"}, {"measurement": "Log Y. enterocolitica reduction", "setting": "[2]; [5]", "result": 4.04, "unit": "Log"}, {"measurement": "Log Y. enterocolitica titer", "setting": "[2]; [5]", "result": 4.45, "unit": "Log"}, {"measurement": "Log Y. enterocolitica reduction", "setting": "[2]; [6]", "result": 5.79, "unit": "Log"}, {"measurement": "Log Y. enterocolitica titer", "setting": "[2]; [6]", "result": 2.70, "unit": "Log"}, {"measurement": "Log Y. enterocolitica reduction", "setting": "[2]; [7]", "result": 5.95, "unit": "Log"}, {"measurement": "Log Y. enterocolitica titer", "setting": "[2]; [7]", "result": 2.54, "unit": "Log"}, {"measurement": "reduction of log inactivation relative to the standard condition", "setting": "[2]; 20 mM neutralized cysteine or neutralized glutathione, 0.2 mM PIC-1", "result": "about 2.5 log"}, {"measurement": "solubility when formulated together with neutralized glutathione", "setting": "[3]", "result": "precipitated out of solution"}]}]}
